Reference: patent US9365830B2, “Agents and methods for inhibiting human pluripotent stem cell growth” (VIACYTE, INC., priority 2010, dated 2016)

How the values were obtained:
Assay type in all cases: cell-based, human
[1] = system: pancreatic endoderm differentiations of hESCs; experiment: Suspension aggregate differentiation to pancreatic endoderm after Stage 1 treatment, Q-PCR; conditions: Stage 1 cultures treated with 0.1 μM Caffeic acid or 0.17 μM Ivermectin
Procedure: FIGS. 10A-10I are bar graphs showing the relative gene expression levels of OCT4 (FIG. 10A), MIXL (FIG. 10B), HNF1B (FIG. 10C), HNF4A (FIG. 10D), PAX4 (FIG. 10E), NGN3 (FIG. 10F), NKX2.2 (FIG. 10G), NKX6.1 (FIG. 10H), and PTF1A (FIG. 10I) after treatment of suspension aggregate cell cultures at Stages 1 with DMSO (Control), 0.1 μM Caffeic acid or 0.17 μM Ivermectin agents. Untreated control samples were collected at d0 and d1 (left panel). Treated samples were collected at d2, d3, d5, d7, d9, d11, and d13. The columns for each day of the treated samples are (from left to right): DMSO, Caffeic acid, and Ivermectin. The cultures were differentiated to the end of Stage 4. The results from an untreated, pancreatic endoderm differentiation are shown on the right, with samples collected on days 0, 1, 2, 5, 8, 10 and 14.
To further determine the effects of the above compounds (excluding those compounds that induced off-target differentiation), three selected compounds (chelerythrine chloride (FIGS. 5 & 6), caffeic acid and Ivermectin) were screened for effects on later stages of pancreatic differentiation, (such as Stages 2-5). Human ESCs were first differentiated through Stage 1 then to Stages 2 to 5 in suspension aggregate cultures similar to that above. Stage 1 cultures were treated with DMSO, caffeic acid or Ivermectin substantially as described above. Untreated control samples were collected at d0 (hESC) and d1 (FIG. 10, left panel), while treated samples were collected at days 2, 3, 5, 7, 9, 11 and 13 (FIG. 10 d2, d3, d5, d7, d9, d11 and d13 respectively). Gene expression levels in the collected samples were analyzed using Q-PCR and compared to the d0 (hESC) sample as well as qualified pancreatic endoderm (FIG. 10, right panel). The qualified pancreatic endoderm control consisted of about 50% pancreatic endoderm, about 46% endocrine cells and about 4% “other” cells as determined by flow cytometry. Neither caffeic acid nor Ivermectin affected survival, growth and/or proliferation of pancreatic endoderm differentiations. […] Typical gene expression levels for Stages 3, 4 and 5 cells were normal; for example, increased expression of NKX6.1 and PTF1A at Stage 4, pancreatic endoderm (FIGS. 10H and 10I), and of NGN3 and NKX2.2 at Stage 5, endocrine precursor and endocrine cells (FIGS. 10 F and 10G) was observed.

[2] = system: undifferentiated hESCs growing in adherent culture; experiment: EC50 of cytotoxic effect on undifferentiated hESCs in adherent culture, real-time impedance assay; conditions: Homo sapiens, read-out: EC50 concentrations for hES cells (cytotoxic effect)
Procedure: In summary, the final three (3) candidates identified from both the primary and secondary screens (EXAMPLE 1) and the full screen of the LOPAC1280™ collection (EXAMPLE 2) were Chelerythrine Chloride, Caffeic acid and Ivermectin. FIG. 11 lists the known or inferred mode(s) of action for these three compounds, as well as their structures. EC50 values for the respective cytotoxic effects on undifferentiated hESCs growing in adherent culture were determined using real-time impedance assays.
(§1) Depletion of OCT4-positive cells during Stage 1 differentiation was examined using the plating assay described above. Stage 1 differentiations of hES cells were treated from day 1 to 2 with the candidate compounds as described in Example 2 (chelerythrine chloride, caffeic acid and Ivermectin), at their EC50 concentrations for hES cells. Plated untreated and DMSO-treated aggregates were indistinguishable, and both contained discrete clusters of OCT4-positive cells. See FIG. 13A top and bottom panels for a DMSO treated example. The intensity of OCT4-positive staining in differentiating aggregate cell cultures treated with DMSO (control) was equivalent to undifferentiated hES cells.

[3] = system: OCT4-positive cells in Stage 1 differentiations of hES cells; experiment: Plating assay for depletion of OCT4-positive cells in Stage 1 suspension aggregates, OCT4 immunostaining
Procedure: Human ES cell suspension aggregates were formed in rotational culture as described previously and differentiated through Stage 1 (definitive endoderm). About 20-30 aggregates were then plated per well in 4-well tissue culture dishes coated with MATRIGEL· diluted 1:200, and cultured for 24 hours in hESC medium (DMEM/F12, 10% XF-KSR, 10 ng/mL Activin A and 10 ng/mL Heregulin). This approach was intended to increase the contrast in OCT4 expression between undifferentiated hESCs and cells committed to differentiation. […] Stated in another way, mixed population cell cultures in hESC medium would potentially support expansion/proliferation of residual undifferentiated (hESCs), thereby show increased OCT4 gene expression, as compared to cells committed to differentiation, which would have decreased of OCT4 gene expression. Plated aggregates were immunostained for OCT4 protein and counterstained with DAPI, a nuclear stain (FIG. 12). The cell aggregates that were plated had flattened and spread out within a 24-hour period; while the centers of the aggregates were still domed. […] Brightly staining OCT4-positive cells were easily identified and distinguishable from the majority of OCT4 negative cells. OCT4-positive cells were generally found in clusters and most often within the domed area of a plated aggregate. […] Smaller aggregates residing in a larger aggregate may occur as a result of the initial stages of rotational culture, or the aggregation process, during which small clusters (primary aggregates) form initially. Aggregation of two or more primary aggregates likely leads to the formation of larger secondary aggregates, which can be 100-150 μm in diameter. Thus, it is possible that any single clusters of OCT4-positive cells exist at the center of a primary aggregate and resist differentiation. Such clusters would remain substantially undifferentiated and stain OCT4-positive. One hypothesis is that primary aggregates are specified to differentiation relative to their positioning in primary and secondary aggregates. For example, FIGS. 12A through 12E show a representative series of images, from small (primary) (e.g. FIGS. 12A and 12B) and larger (secondary) (e.g. FIGS. 12C-12E) plated aggregates containing OCT4-positive clusters (dark circles).
as §1
Additional experiments were performed using higher concentrations of compounds and extended effects of the compounds in cell culture plated aggregates in hESC medium for 24 or 72 hours before staining (FIGS. 15 and 16). […] Another group of Stage 1 differentiating cultures were processed in parallel, but treated with 10 μm chelerythrine chloride.

With `O=C(O)C=Cc1ccc(O)c(O)c1` [caffeic acid, 3,4-dihydroxycinnamic acid] the “Typical gene expression levels for Stages 3, 4 and 5 cells (NKX6.1, PTF1A, NGN3, NKX2.2)” value ([1]; Q-PCR d2-d13) was “normal”, the “survival, growth and/or proliferation of pancreatic endoderm differentiations (pancreatic endoderm viability)” value ([1]; differentiated to end of Stage 4) was “did not affect pancreatic endoderm viability” and the EC50 [2] was 100 nM. For the same compound, the “size of clusters of OCT4-positive cells” value ([3]; 5 or 10 μm caffeic acid, 24 hours, vs DMSO-treated (or untreated) controls) was “smaller in size”, the “expansion of clusters of OCT4-positive cells” value ([3]; 5 or 10 μm caffeic acid, 72 hours, vs DMSO treated control) was “did not expand substantially” and the “size of OCT4-positive clusters” value ([3]; another study, 0.1 μM caffeic acid, 24 hours after plating in hESC medium (FIG. 14, BG02)) was “even more substantial decrease”. For the same compound, the “intensity for OCT4 staining” value ([3]; treated day 1 to 2 of Stage 1 at EC50 concentration, plated 24 hours in hESC medium, vs untreated or DMSO) was “significantly decreased”.
